Source: US20240101570A1 (AMGEN INC., priority 2020, published 2024)

Tests used:
HCT116 WT cells = experiment: HCT116 WT cell proliferation / viability (CellTiter-Glo, 6 days); assay type: cell-based; conditions: Homo sapiens, HCT-116, 144 h, HCT116 WT cells, 6 days, CellTiter-Glo; read-out: HCT-116 WT IC50
Summary of the method: (§1)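 Viability read by CellTiter-Glo after 6-day compound exposure of MTAP-null and wild-type HCT116 cells grown in RPMI 1640 with 10% FBS. Dosing used 1:3 steps from 1 or 10 μM (8-9 points) or 1:2 steps from 10 or 50 μM (22 points); IC50 taken where fitted curve crosses 50% of control.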

HCT116 MTAP null cells = experiment: HCT116 MTAP null cell proliferation / viability (CellTiter-Glo, 6 days); assay type: cell-based; conditions: HCT116-MTAP null, 144 h, HCT116 MTAP null cells, 6 days, CellTiter-Glo; read-out: HCT-116 MTAP null IC50
Summary of the method: as §1

| IC50 (HCT116 WT cells) | IC50 (HCT116 MTAP null cells) | SMILES |
| --- | --- | --- |
| > 10000 nM | 560 nM | CCN(Cc1ccc(C(F)(F)F)cn1)C(=O)c1ccc2nc(N)c3c(c2c1)COC3(C)C [Example 933, 4-amino-N-ethyl-3,3-dimethyl-N-((5-(trifluoromethyl)pyridin-2-yl)methyl)-1,3-dihydrofuro[3,4-c]quinoline-8-carboxamide] |
| > 1000 nM | 79 nM | CC(C)N(Cc1ccc(C(F)(F)F)cn1)C(=O)c1ccc2nc(N)c3c(c2c1)COC3(C)C [Example 934, 4-amino-N-isopropyl-3,3-dimethyl-N-((5-(trifluoromethyl)pyridin-2-yl)methyl)-1,3-dihydrofuro[3,4-c]quinoline-8-carboxamide] |
| > 1000 nM | 630 nM | CC1(C)OCc2c1c(N)nc1ccc(C(=O)N(Cc3ccc(C(F)(F)F)cn3)C3CC3)cc21 [Example 935, 4-amino-N-cyclopropyl-3,3-dimethyl-N-((5-(trifluoromethyl)pyridin-2-yl)methyl)-1,3-dihydrofuro[3,4-c]quinoline-8-carboxamide] |
| 18700 nM | 721 nM | CC(c1ncc(C(F)(F)F)cc1C#N)N(C)C(=O)c1cc2c(cc1F)nc(N)c1cnn(C)c12 (centres unmarked) [Example 936, 4-amino-N-(1-(3-cyano-5-(trifluoromethyl)pyridin-2-yl)ethyl)-7-fluoro-N,1-dimethyl-1H-pyrazolo[4,3-c]quinoline-8-carboxamide] |
